How the values were obtained:
p110 delta = target: T1, p110 delta (Homo sapiens, UniProt O00329); test: PI3K Isoform Inhibition Assay, p110 delta; type: biochemical; settings: PI3K isoform inhibition assay of Example 901
T1 construct: purchased Upstate Group, Millipore; Dundee, UK
Experimental: (§1) PI3K enzymatic activity was assayed by measuring the amount of product phosphatidylinositol […] (PIP3) formed from substrate 4,5 phosphatidylinositol 4,5-phosphate (PIP2) using a fluorescence polarization displacement assay. The decrease in fluorescence polarization of a fluorescent PIP3 probe is measured as it is displaced from a PIP3-binding protein GRP-1 detector by PI3K-catalyzed product. […] The kinase reactions were initiated by the addition of 40 ng/mL p110α/p85α, 300 ng/mL p110β/p85α, 40 ng/mL p110γ, or 40 ng/mL […] (Upstate Group, Millipore; Dundee, UK), and 10 μM PIP2 (Echelon Biosciences) to the wells. […] After 60 minutes of incubation at room temperature to allow equilibration of labeled and unlabeled PIP3 binding, the parallel and perpendicular components of the fluorescence emissions from each sample were measured at an excitation wavelength of 530 nm and an emission wavelength of 590 nm using an Envision fluorescent plate reader with a rhodamine filter (PerkinElmer Life and Analytical Sciences; Wellesley, Mass.). The assay is capable of detecting 0.1-2.0 μM PIP3 product. The IC50 values were obtained by fitting the dose-dependent inhibition data to a 4-parameter equation using Assay Explorer software (MDL, San Ramon, Calif.).
(§2) The Formula I compound was serially diluted in 100% DMSO. The kinase reaction was incubated for 1 h at room temperature, and the reaction was terminated by the addition of PBS. IC50 values were subsequently determined using sigmoidal dose-response curve fit (variable slope).
The four Class I PI 3-kinases are cloned into baculovirus vectors as follows: […]

p110 alpha = target: T2, p110 alpha (Homo sapiens, UniProt P42336); test: PI3K Isoform Inhibition Assay, p110 alpha (delta/alpha selectivity); settings: ratio of biochemical IC50 values
T2 construct: purchased Upstate Group, Millipore; Dundee, UK
T2 sequence (P42336 whole entry, canonical isoform): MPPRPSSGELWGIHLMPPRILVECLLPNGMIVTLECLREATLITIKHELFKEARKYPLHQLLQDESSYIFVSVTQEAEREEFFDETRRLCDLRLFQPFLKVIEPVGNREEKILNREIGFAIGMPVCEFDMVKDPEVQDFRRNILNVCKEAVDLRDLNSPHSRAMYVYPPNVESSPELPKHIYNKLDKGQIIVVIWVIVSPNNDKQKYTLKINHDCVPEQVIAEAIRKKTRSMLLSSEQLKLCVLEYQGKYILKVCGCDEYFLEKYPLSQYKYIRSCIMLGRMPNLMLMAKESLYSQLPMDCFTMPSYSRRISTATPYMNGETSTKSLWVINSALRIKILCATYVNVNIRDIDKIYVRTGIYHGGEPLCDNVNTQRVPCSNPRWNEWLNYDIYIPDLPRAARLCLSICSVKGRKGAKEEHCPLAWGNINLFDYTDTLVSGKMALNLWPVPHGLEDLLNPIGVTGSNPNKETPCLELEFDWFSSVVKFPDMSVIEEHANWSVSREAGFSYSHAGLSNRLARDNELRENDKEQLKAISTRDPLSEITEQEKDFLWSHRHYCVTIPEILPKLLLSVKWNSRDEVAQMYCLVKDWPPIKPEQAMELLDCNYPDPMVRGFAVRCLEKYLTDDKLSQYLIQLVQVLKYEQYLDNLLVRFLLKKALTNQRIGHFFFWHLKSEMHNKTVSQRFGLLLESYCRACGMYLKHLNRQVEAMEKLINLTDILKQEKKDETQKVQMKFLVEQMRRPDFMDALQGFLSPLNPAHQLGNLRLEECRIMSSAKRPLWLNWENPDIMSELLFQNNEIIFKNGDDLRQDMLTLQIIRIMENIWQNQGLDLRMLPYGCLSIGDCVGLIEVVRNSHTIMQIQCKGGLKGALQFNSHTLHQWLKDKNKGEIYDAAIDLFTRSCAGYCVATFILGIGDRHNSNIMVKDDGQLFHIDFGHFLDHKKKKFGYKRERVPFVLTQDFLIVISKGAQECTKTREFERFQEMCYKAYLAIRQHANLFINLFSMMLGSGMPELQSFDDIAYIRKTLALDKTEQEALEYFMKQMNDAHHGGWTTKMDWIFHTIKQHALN
T2 sequence (P27986 whole entry partner, canonical isoform): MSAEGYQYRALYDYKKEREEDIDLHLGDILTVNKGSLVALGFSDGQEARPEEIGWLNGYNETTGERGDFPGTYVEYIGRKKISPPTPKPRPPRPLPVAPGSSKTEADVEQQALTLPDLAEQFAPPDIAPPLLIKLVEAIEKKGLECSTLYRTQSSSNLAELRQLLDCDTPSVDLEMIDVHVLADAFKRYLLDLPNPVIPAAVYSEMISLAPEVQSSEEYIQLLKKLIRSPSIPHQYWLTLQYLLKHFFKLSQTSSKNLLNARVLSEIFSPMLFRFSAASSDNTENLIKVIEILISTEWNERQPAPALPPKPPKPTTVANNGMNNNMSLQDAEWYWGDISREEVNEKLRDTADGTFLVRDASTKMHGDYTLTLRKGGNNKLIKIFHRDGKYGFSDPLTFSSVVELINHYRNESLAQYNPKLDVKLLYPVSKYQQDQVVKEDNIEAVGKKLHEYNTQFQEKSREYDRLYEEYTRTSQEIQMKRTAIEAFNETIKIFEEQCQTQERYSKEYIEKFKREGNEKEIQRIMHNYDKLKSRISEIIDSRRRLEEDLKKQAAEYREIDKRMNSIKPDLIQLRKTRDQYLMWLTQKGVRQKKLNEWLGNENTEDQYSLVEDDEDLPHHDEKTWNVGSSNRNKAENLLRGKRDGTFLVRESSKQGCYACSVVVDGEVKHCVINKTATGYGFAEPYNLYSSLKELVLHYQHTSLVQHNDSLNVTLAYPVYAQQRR
Experimental: as §1, §2
The same protocol may be used to establish IC50 values for p110α (alpha) PI3K binding. […]

[1] = tested on: production of CD69 by B lymphocytes in human whole blood activated with anti-human IgM; test: CD69 Whole Blood Assay; type: cell-based; settings: Lymphocyte, anti-IgM stimulated, CD69 positive of CD20 positive cells, 20 hours
Experimental: Human blood is obtained from healthy volunteers, with the following restrictions: 1 week drug-free, non-smokers.
Human whole blood—HWB (100 μl) is added to each well. After mixing the plates are incubated at 37° C., 5% CO2, 100% humidity for 30 minutes. Goat F(ab′)2 anti-human IgM (10 μl of a 500 μg/ml solution, 50 μg/ml final) is added to each well (except the no-stimulus wells) with mixing and the plates are incubated for an additional 20 hours. […] Include induced control, unstained and single stains for compensation adjustments and initial voltage settings. […] Results are initially analyzed by FACS analysis software (Flow Jo).

T1 sequence (O00329 whole entry, canonical isoform): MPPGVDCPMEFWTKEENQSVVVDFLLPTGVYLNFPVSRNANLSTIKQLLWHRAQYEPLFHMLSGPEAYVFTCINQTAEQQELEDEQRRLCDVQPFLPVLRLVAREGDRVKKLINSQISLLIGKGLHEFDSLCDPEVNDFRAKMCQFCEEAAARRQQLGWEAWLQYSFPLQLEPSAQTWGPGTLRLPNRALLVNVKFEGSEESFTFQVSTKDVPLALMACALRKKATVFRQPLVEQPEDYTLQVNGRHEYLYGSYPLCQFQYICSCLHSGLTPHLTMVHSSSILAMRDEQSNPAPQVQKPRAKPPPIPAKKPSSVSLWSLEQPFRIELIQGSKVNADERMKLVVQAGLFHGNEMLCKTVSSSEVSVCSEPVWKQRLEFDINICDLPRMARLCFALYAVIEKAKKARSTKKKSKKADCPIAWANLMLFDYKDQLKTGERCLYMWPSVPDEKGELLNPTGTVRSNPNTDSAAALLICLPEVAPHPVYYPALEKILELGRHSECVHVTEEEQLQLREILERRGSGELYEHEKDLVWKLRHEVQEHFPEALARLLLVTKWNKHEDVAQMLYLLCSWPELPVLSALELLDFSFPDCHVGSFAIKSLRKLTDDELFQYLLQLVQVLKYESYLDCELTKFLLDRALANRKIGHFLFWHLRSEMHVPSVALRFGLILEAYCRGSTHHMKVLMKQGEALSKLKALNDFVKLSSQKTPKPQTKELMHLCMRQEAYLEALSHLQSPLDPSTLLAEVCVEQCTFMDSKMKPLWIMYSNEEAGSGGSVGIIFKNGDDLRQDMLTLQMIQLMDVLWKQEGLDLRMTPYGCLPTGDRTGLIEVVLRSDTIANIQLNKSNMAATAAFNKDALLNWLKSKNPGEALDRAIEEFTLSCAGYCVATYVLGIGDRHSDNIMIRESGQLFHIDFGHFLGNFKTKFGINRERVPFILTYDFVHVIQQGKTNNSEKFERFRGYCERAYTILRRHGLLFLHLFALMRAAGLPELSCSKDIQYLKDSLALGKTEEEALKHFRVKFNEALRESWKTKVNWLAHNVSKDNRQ
T1 sequence (P27986 whole entry partner, canonical isoform): as the sequence (P27986 whole entry partner, canonical isoform) above

IC50 (p110 delta) [nM] | IC50 p110 alpha/IC50 p110 delta (p110 alpha) | IC50 [1] [nM] | SMILES
5.33 | 44 | 83.8 | CC(C)c1nc2ccccc2n1-c1nc(N2CCOCC2)c2nc(CN3CCC(C(C)(C)O)CC3)ccc2n1 [Compound 112, 2-(1-((2-(2-isopropyl-1H-benzo[d]imidazol-1-yl)-4-morpholinopyrido[3,2-d]pyrimidin-6-yl)methyl)piperidin-4-yl)propan-2-ol]
1.78 | 53 | 12 | CO[C@@H](C)c1nc2ccccc2n1-c1nc(N2CCOCC2)c2nc(CN3CCC(C(C)(C)O)CC3)ccc2n1 [Compound 114, (S)-2-(1-((2-(2-(1-methoxyethyl)-1H-benzo[d]imidazol-1-yl)-4-morpholinopyrido[3,2-d]pyrimidin-6-yl)methyl)piperidin-4-yl)propan-2-ol]
0.845 | 440 | – | O=S1(=O)CCN(C2CN(Cc3ccc4nc(-c5c(F)ccc6[nH]ccc56)nc(N5CCOCC5)c4n3)C2)CC1 [Compound 129, 4-(2-(5-fluoro-1H-indol-4-yl)-6-((3-(1,1-dioxo)thiomorpholinoazetidin-1-yl)methyl)pyrido[3,2-d]pyrimidin-4-yl)morpholine]
3.12 | 352 | – | Fc1ccc2[nH]ccc2c1-c1nc(N2CCOCC2)c2nc(CN3CCC(C4COC4)CC3)ccc2n1 [Compound 130, 4-(2-(5-fluoro-1H-indol-4-yl)-6-((4-(oxetan-3-yl)piperidin-1-yl)methyl)pyrido[3,2-d]pyrimidin-4-yl)morpholine]
2.23 | 36 | – | CCc1nc2ccccc2n1-c1nc(N2CCOCC2)c2nc(CN3CC(N4CCOCC4)C3)ccc2n1 [Compound 131, 4-(1-((2-(2-ethyl-1H-benzo[d]imidazol-1-yl)-4-morpholinopyrido[3,2-d]pyrimidin-6-yl)methyl)azetidin-3-yl)morpholine]
22.4 | 10 | – | Cc1cc(-c2nc(N3CCOCC3)c3nc(CN4CCC(C(C)(C)O)CC4)ccc3n2)cnc1N [Compound 132, 2-(1-((2-(6-amino-5-methylpyridin-3-yl)-4-morpholinopyrido[3,2-d]pyrimidin-6-yl)methyl)piperidin-4-yl)propan-2-ol]
23.8 | 22 | – | CC(C)(O)C1CCN(Cc2ccc3nc(-c4c[nH]c5ccccc45)nc(N4CCOCC4)c3n2)CC1 [Compound 133, 2-(1-((2-(1H-indol-3-yl)-4-morpholinopyrido[3,2-d]pyrimidin-6-yl)methyl)piperidin-4-yl)propan-2-ol]
3.56 | 10.9 | – | CCc1nc2ccccc2n1-c1nc(N2CCOCC2)c2nc(CN3CC(N4CCNC(=O)C4)C3)ccc2n1 [Compound 134, 4-(1-((2-(2-ethyl-1H-benzo[d]imidazol-1-yl)-4-morpholinopyrido[3,2-d]pyrimidin-6-yl)methyl)azetidin-3-yl)piperazin-2-one]
25.6 | 82 | – | Cc1cc2ccccc2n1-c1nc(N2CCOCC2)c2nc(CN3CCC(C(C)(C)O)CC3)ccc2n1 [Compound 135, 2-(1-((2-(2-methyl-1H-indol-1-yl)-4-morpholinopyrido[3,2-d]pyrimidin-6-yl)methyl)piperidin-4-yl)propan-2-ol]
63.6 | 9.4 | – | CC(C)n1ncnc1-c1ccc2nc(-c3c(F)ccc4[nH]ccc34)nc(N3CCOCC3)c2n1 [Compound 141, 4-(2-(5-fluoro-1H-indol-4-yl)-6-(1-isopropyl-1H-1,2,4-triazol-5-yl)pyrido[3,2-d]pyrimidin-4-yl)morpholine]
35.9 | 58 | – | CC(C)(O)CNCc1ccc2nc(-c3c(F)ccc4[nH]ccc34)nc(N3CCOCC3)c2n1 [Compound 143, 1-((2-(5-fluoro-1H-indol-4-yl)-4-morpholinopyrido[3,2-d]pyrimidin-6-yl)methylamino)-2-methylpropan-2-ol]
2.86 | 42 | – | CC(C)(O)C1CCN(Cc2ccc3nc(-n4c(C(F)(F)F)nc5ccccc54)nc(N4CCOCC4)c3n2)CC1 [Compound 156, 2-(1-((4-morpholino-2-(2-(trifluoromethyl)-1H-benzo[d]imidazol-1-yl)pyrido[3,2-d]pyrimidin-6-yl)methyl)piperidin-4-yl)propan-2-ol]
873 | 1.4 | – | Fc1ccc2[nH]ccc2c1-c1ccc2nc(N3CCOCC3)nc(N3CCOCC3)c2n1 [Compound 159, 4,4′-(6-(5-fluoro-1H-indol-4-yl)pyrido[3,2-d]pyrimidine-2,4-diyl)dimorpholine]
98.3 | 21 | – | CNc1ncccc1-c1nc(N2CCOCC2)c2nc(CN3CCC(C(C)(C)O)CC3)ccc2n1 [Compound 160, 2-(1-((2-(2-(methylamino)pyridin-3-yl)-4-morpholinopyrido[3,2-d]pyrimidin-6-yl)methyl)piperidin-4-yl)propan-2-ol]
118 | 17.8 | – | CC(C)(O)C1CCN(Cc2ccc3nc(-c4cccc5nccn45)nc(N4CCOCC4)c3n2)CC1 [Compound 161, 2-(1-((2-(imidazo[1,2-a]pyridin-5-yl)-4-morpholinopyrido[3,2-d]pyrimidin-6-yl)methyl)piperidin-4-yl)propan-2-ol]
8.69 | 0.18 | – | CC1(COc2ccc3nc(-c4cnc(N)nc4)nc(N4CCOCC4)c3n2)COC1 [Compound 188, 5-(6-((3-methyloxetan-3-yl)methoxy)-4-morpholinopyrido[3,2-d]pyrimidin-2-yl)pyrimidin-2-amine]
5.72 | 0.20 | – | Cc1cnc2c(N3CCOCC3)nc(-c3cnc(N)nc3)nc2c1 [Compound 197, 5-(7-methyl-4-morpholinopyrido[3,2-d]pyrimidin-2-yl)pyrimidin-2-amine]
3.88 | 0.27 | – | Nc1ncc(-c2nc(N3CCOCC3)c3ncc(C4CC4)cc3n2)cn1 [Compound 198, 5-(7-cyclopropyl-4-morpholinopyrido[3,2-d]pyrimidin-2-yl)pyrimidin-2-amine]
728 | 0.95 | – | COC1CN(c2cnc3c(N4CCOCC4)nc(N4CC(OC)C4)nc3c2)C1 [Compound 199, 4-(2,7-bis(3-methoxyazetidin-1-yl)pyrido[3,2-d]pyrimidin-4-yl)morpholine]
716 | 0.97 | – | COC1CN(c2cnc3c(N4CCOCC4)nc(-c4cnc(N)nc4)nc3c2)C1 [Compound 200, 5-(7-(3-methoxyazetidin-1-yl)-4-morpholinopyrido[3,2-d]pyrimidin-2-yl)pyrimidin-2-amine]
4.91 | 0.34 | – | CC(C)Oc1cnc2c(N3CCOCC3)nc(-c3cnc(N)nc3)nc2c1 [Compound 201, 5-(7-isopropoxy-4-morpholinopyrido[3,2-d]pyrimidin-2-yl)pyrimidin-2-amine]
